Experimental data reported in ChEMBL document CHEMBL3885881, “DrugMatrix”.

Species: Rattus norvegicus
Assay: DrugMatrix - Regimen: Daily Repeat
Assay type: toxicity, organism-based, Sprague-Dawley
Set-up: regimen Daily Repeat, gender Male, age 6-8 weeks
Details: in vivo, iv, vehicle 100 % SALINE; for ABSOLUTE BASOPHIL / ABSOLUTE EOSINOPHIL / ABSOLUTE LYMPHOCYTE / ABSOLUTE MONOCYTE / ABSOLUTE SEGMENTED NEUTROPHIL / BASOPHIL / EOSINOPHIL / ERYTHROCYTE COUNT / HEMATOCRIT / HEMOGLOBIN / LEUKOCYTE COUNT / LYMPHOCYTE / MEAN CORPUSCULAR HEMOGLOBIN / MEAN CORPUSCULAR HEMOGLOBIN CONCENTRATION / MEAN CORPUSCULAR VOLUME / MONOCYTE / NEUTROPHIL / NUCLEATED RED BLOOD CELLS / PLATELET COUNT: tissue Blood; for ALANINE AMINOTRANSFERASE / ALBUMIN / ALKALINE PHOSPHATASE / ASPARTATE AMINOTRANSFERASE / BLOOD UREA NITROGEN / CARBON DIOXIDE / CHLORIDE / CHOLESTEROL / CREATINE PHOSPHOKINASE / CREATININE / GLUCOSE / LACTATE DEHYDROGENASE / LIPASE / PHOSPHORUS / POTASSIUM / SODIUM / TOTAL BILIRUBIN / TOTAL PROTEIN / URIC ACID: tissue Plasma
[1] = 0.01 mg/kg, 72 h, dose level Low, time 3 day
[2] = 0.01 mg/kg, 120 h, dose level Low, time 5 day
[3] = 15 mg/kg, 72 h, dose level High, time 3 day

## CC(C)NCC(O)c1ccc(O)c(O)c1 (centres undefined) [ISOPROTERENOL]
[1]
  ABSOLUTE BASOPHIL: 0 CELLS/uL
  ABSOLUTE EOSINOPHIL: 134.67 CELLS/uL
  ABSOLUTE LYMPHOCYTE: 13411.33 CELLS/uL
  ABSOLUTE MONOCYTE: 299.67 CELLS/uL
  ABSOLUTE SEGMENTED NEUTROPHIL: 1854.33 CELLS/uL
  BASOPHIL: 0%
  EOSINOPHIL: 0.67%
  ERYTHROCYTE COUNT: 5.6 x10E6/uL
  HEMATOCRIT: 34.43%
  HEMOGLOBIN: 12.9 G/DL
  LEUKOCYTE COUNT: 15.7 x10E3/uL
  LYMPHOCYTE: 85.33%
  MEAN CORPUSCULAR HEMOGLOBIN: 23.03 pg
  MEAN CORPUSCULAR HEMOGLOBIN CONCENTRATION: 37.47 G/DL
  MEAN CORPUSCULAR VOLUME: 61.43 fL
  MONOCYTE: 2%
  NEUTROPHIL: 12%
  NUCLEATED RED BLOOD CELLS: 0 /100WBC
  PLATELET COUNT: 1265.33 x10E3/uL
  ALANINE AMINOTRANSFERASE: 39.67 u/L
  ALBUMIN: 4.4 G/DL
  ALKALINE PHOSPHATASE: 368 u/L
  ASPARTATE AMINOTRANSFERASE: 75 u/L
  BLOOD UREA NITROGEN: 14.33 mg/dL
  CARBON DIOXIDE: 25 mmol/L
  CHLORIDE: 104 MEQ/L
  CHOLESTEROL: 69.67 mg/dL
  CREATINE PHOSPHOKINASE: 196.33 u/L
  CREATININE: 0.24 mg/dL
  GLUCOSE: 149.67 mg/dL
  LACTATE DEHYDROGENASE: 289 u/L
  LIPASE: 9.67 u/L
  PHOSPHORUS: 13.47 mg/dL
  POTASSIUM: 6.71 MEQ/L
  SODIUM: 146.07 MEQ/L
  TOTAL BILIRUBIN: 0.2 mg/dL
  TOTAL PROTEIN: 5.97 G/DL
  URIC ACID: 2.17 mg/dL
[2]
  ABSOLUTE BASOPHIL: 0 CELLS/uL
  ABSOLUTE EOSINOPHIL: 0 CELLS/uL
  ABSOLUTE LYMPHOCYTE: 15742 CELLS/uL
  ABSOLUTE MONOCYTE: 224 CELLS/uL
  ABSOLUTE SEGMENTED NEUTROPHIL: 800.67 CELLS/uL
  BASOPHIL: 0%
  EOSINOPHIL: 0%
  ERYTHROCYTE COUNT: 5.33 x10E6/uL
  HEMATOCRIT: 32.33%
  HEMOGLOBIN: 12.57 G/DL
  LEUKOCYTE COUNT: 16.77 x10E3/uL
  LYMPHOCYTE: 94%
  MEAN CORPUSCULAR HEMOGLOBIN: 23.6 pg
  MEAN CORPUSCULAR HEMOGLOBIN CONCENTRATION: 38.9 G/DL
  MEAN CORPUSCULAR VOLUME: 60.67 fL
  MONOCYTE: 1.33%
  NEUTROPHIL: 4.67%
  NUCLEATED RED BLOOD CELLS: 0 /100WBC
  PLATELET COUNT: 1122.67 x10E3/uL
  ALANINE AMINOTRANSFERASE: 81 u/L
  ALBUMIN: 3.6 G/DL
  ALKALINE PHOSPHATASE: 310 u/L
  ASPARTATE AMINOTRANSFERASE: 65 u/L
  BLOOD UREA NITROGEN: 16.67 mg/dL
  CARBON DIOXIDE: 24 mmol/L
  CHLORIDE: 107.5 MEQ/L
  CHOLESTEROL: 61.33 mg/dL
  CREATINE PHOSPHOKINASE: 282.67 u/L
  CREATININE: 0.3 mg/dL
  GLUCOSE: 161.67 mg/dL
  LACTATE DEHYDROGENASE: 140 u/L
  LIPASE: 11 u/L
  PHOSPHORUS: 11.23 mg/dL
  POTASSIUM: 6.08 MEQ/L
  SODIUM: 146.4 MEQ/L
  TOTAL BILIRUBIN: 0.13 mg/dL
  TOTAL PROTEIN: 5.73 G/DL
  URIC ACID: 1.3 mg/dL
[3]
  ABSOLUTE BASOPHIL: 0 CELLS/uL
  ABSOLUTE EOSINOPHIL: 47.67 CELLS/uL
  ABSOLUTE LYMPHOCYTE: 15188.67 CELLS/uL
  ABSOLUTE MONOCYTE: 404 CELLS/uL
  ABSOLUTE SEGMENTED NEUTROPHIL: 1159.67 CELLS/uL
  BASOPHIL: 0%
  EOSINOPHIL: 0.33%
  ERYTHROCYTE COUNT: 5.66 x10E6/uL
  HEMATOCRIT: 36.93%
  HEMOGLOBIN: 13.6 G/DL
  LEUKOCYTE COUNT: 16.8 x10E3/uL
  LYMPHOCYTE: 90.67%
  MEAN CORPUSCULAR HEMOGLOBIN: 24 pg
  MEAN CORPUSCULAR HEMOGLOBIN CONCENTRATION: 36.83 G/DL
  MEAN CORPUSCULAR VOLUME: 65.2 fL
  MONOCYTE: 2.33%
  NEUTROPHIL: 6.67%
  NUCLEATED RED BLOOD CELLS: 0 /100WBC
  PLATELET COUNT: 1372 x10E3/uL
  ALANINE AMINOTRANSFERASE: 39 u/L
  ALBUMIN: 4.1 G/DL
  ALKALINE PHOSPHATASE: 370.67 u/L
  ASPARTATE AMINOTRANSFERASE: 73.67 u/L
  BLOOD UREA NITROGEN: 19.33 mg/dL
  CARBON DIOXIDE: 24.67 mmol/L
  CHLORIDE: 106 MEQ/L
  CHOLESTEROL: 80.33 mg/dL
  CREATINE PHOSPHOKINASE: 282.67 u/L
  CREATININE: 0.17 mg/dL
  GLUCOSE: 151.33 mg/dL
  LACTATE DEHYDROGENASE: 128.33 u/L
  LIPASE: 9 u/L
  PHOSPHORUS: 10.87 mg/dL
